In patent publication US10980813B2, “Antifungal composition” (SEED RESEARCH INSTITUTE CO., LTD., priority 2017, dated 2021):
≈ marks a conversion by molar mass, not a printed value.

Legend:
Assay in all cases: Antifungal activity, MIC by disc (diffusion) method
[1] = tested on: C. parapsilosis; type: cell-based, Candida parapsilosis; conditions: Lodderomyces parapsilosis, YMG agar, 24 hr at 28° C., read-out: MIC (minimum inhibitory concentration) C. parapsilosis
Experimental: (§1) Measurement Method of Antifungal Activity in Various Compounds
(§2) The minimum inhibitory concentration (MIC) was measured by a disc method (diffusion method). The disc method is one kind of the diffusion method, and is a method in which filter paper (disc) impregnated with an antifungal substance at a given concentration is placed on an agar medium (test plate) coated with a test bacterium and cultivated. The disc absorbs water in the medium, diffuses the antifungal substance and forms a given concentration gradient. As a result, the test bacterium forms a growth inhibition zone (circle) in the periphery of the disc, and the level of sensitivity to the antifungal substance is determined from the diameter of the inhibition circle.
(§3) Using the aforementioned method, MIC of various compounds was measured.
(§4) i: In a 100 mL flask, 20 mL of YMG or Mueller Hinton medium is produced.
(§5) ii: A loopful of the test bacterium is dissolved in the medium.
(§6) iii: The medium is cultured at 200 rpm for 24 hr in a rotary shaker set to 28° C.
(§7) i: In a 300 mL flask, 100 mL of YMG or Mueller Hinton agar medium (low melting point agar) is produced.
(§8) ii: After cooling to 37° C.-40° C., preculture medium (1 mL) is added and the mixture is agitated.
(§9) iii: The mixture is dispensed to a square petri dish (size: 100*150*17 mm) by 20 mL each.
(§10) iv: The dish is stood at room temperature until the agar is solidified.
(§11) i: The compound is diluted in ½ dilution series in 10 stages (timely changed according to compound), 50 μL of solution/pulp at each dilution stage is produced, the organic solvent is dried at room temperature and placed on a test plate.
(§12) ii: After culturing T. rubrum for 48 hr and other test bacteria for 24 hr at 28° C. in an incubator, the size of the inhibition circle was measured.
(§13) The medium composition for culture which was used for the aforementioned preculture is shown below.
(§14) [Medium Compositions for Preculture and Test Plate]
(§15) <<YMG Medium>>: For Fungus
(§16) Agar, powder 0.8% * added only when producing test plate

[2] = tested on: A. fumigatus; type: cell-based; conditions: Aspergillus fumigatus, YMG agar, 24 hr at 28° C., read-out: MIC (minimum inhibitory concentration) A. fumigatus
Experimental: as §1, §2, §3, §4, §5, §6, §7, §8, §9, §10, §11, §12, §13, §14, §15, §16

[3] = tested on: T. mentagrophytes; type: cell-based; conditions: Trichophyton mentagrophytes, YMG agar, 24 hr at 28° C., read-out: MIC (minimum inhibitory concentration) T. mentagrophytes
Experimental: as §1, §2, §3, §4, §5, §6, §7, §8, §9, §10, §11, §12, §13, §14, §15, §16

[4] = tested on: Saccharomyces; type: cell-based; conditions: YMG agar, 24 hr at 28° C., read-out: MIC (minimum inhibitory concentration) Saccharomyces
Experimental: as §1, §2, §3, §4, §5, §6, §7, §8, §9, §10, §11, §12, §13, §14, §15, §16

[5] = tested on: T. rubrum; type: cell-based; conditions: Trichophyton rubrum, YMG agar, 48 hr at 28° C., read-out: MIC (minimum inhibitory concentration) T. rubrum
Experimental: as §1, §2, §3, §4, §5, §6, §7, §8, §9, §10, §11, §12, §13, §14, §15, §16

Compound O=S1(=O)N=C2C(=COc3ccc(F)cc32)C2ON21 (stereo not drawn) [II-6b] has an MIC [1] of 4 µg/mL (≈ 14.9 µM), an MIC [2] of 4 µg/mL (≈ 14.9 µM) and an MIC [3] of 1 µg/mL (≈ 3.73 µM). The MIC [4] was 4 µg/mL (≈ 14.9 µM) and the MIC [5] was 1 µg/mL (≈ 3.73 µM).

In the case of O=S1(=O)N=CC2=COc3ccc(Cl)cc3C2=N1 [I-6c], the MIC [1] is reported as 4 µg/mL (≈ 14.9 µM), the MIC [2] is reported as 4 µg/mL (≈ 14.9 µM) and the MIC [3] is reported as 1 µg/mL (≈ 3.72 µM). For the same compound, the MIC [4] was 4 µg/mL (≈ 14.9 µM) and the MIC [5] was 1 µg/mL (≈ 3.72 µM).

CC1=C(C)C2(C)ON2S(=O)(=O)O1 (stereo not drawn) [II-2a] was tested, and the MIC [1] was 8 µg/mL (≈ 41.8 µM), the MIC [2] was 8 µg/mL (≈ 41.8 µM) and the MIC [3] was 2 µg/mL (≈ 10.5 µM). The MIC [4] was 8 µg/mL (≈ 41.8 µM) and the MIC [5] was 2 µg/mL (≈ 10.5 µM).

Compound N#Cc1ccc2c(c1)C=NS(=O)(=O)O2 [I-1g] has an MIC [1] of 4 µg/mL (≈ 19.2 µM), an MIC [2] of 4 µg/mL (≈ 19.2 µM) and an MIC [3] of 1 µg/mL (≈ 4.8 µM). For the same compound, the MIC [4] was 4 µg/mL (≈ 19.2 µM) and the MIC [5] was 1 µg/mL (≈ 4.8 µM).

In the case of O=S1(=O)N=C(c2ccccc2)c2cc(Cl)ccc2N1 [I-1l], the MIC [1] is reported as 8 µg/mL (≈ 27.3 µM), the MIC [2] is reported as 8 µg/mL (≈ 27.3 µM) and the MIC [3] is reported as 2 µg/mL (≈ 6.83 µM). It also gave an MIC [4] of 8 µg/mL (≈ 27.3 µM) and an MIC [5] of 2 µg/mL (≈ 6.83 µM).

With O=S1(=O)N=CC2=COc3ccc(F)cc3C2=N1 [I-6b] the MIC [1] was 4 µg/mL (≈ 15.9 µM), the MIC [2] was 4 µg/mL (≈ 15.9 µM) and the MIC [3] was 1 µg/mL (≈ 3.96 µM). It also gave an MIC [4] of 4 µg/mL (≈ 15.9 µM) and an MIC [5] of 1 µg/mL (≈ 3.96 µM).

CCCCCCCCN1CC2(c3ccccc3)ON2S1(=O)=O (stereo not drawn) [II-3e] was tested, and the MIC [1] was 8 µg/mL (≈ 24.7 µM), the MIC [2] was 8 µg/mL (≈ 24.7 µM) and the MIC [3] was 2 µg/mL (≈ 6.16 µM). The MIC [4] was 8 µg/mL (≈ 24.7 µM) and the MIC [5] was 2 µg/mL (≈ 6.16 µM).

CC1=NS(=O)(=O)N2OC12 (stereo not drawn) [II-4a] gave an MIC [1] of 8 µg/mL (≈ 54 µM), an MIC [2] of 8 µg/mL (≈ 54 µM) and an MIC [3] of 2 µg/mL (≈ 13.5 µM). The MIC [4] was 8 µg/mL (≈ 54 µM) and the MIC [5] was 2 µg/mL (≈ 13.5 µM).

For CC12ON1S(=O)(=O)Oc1ccccc12 (stereo not drawn) [II-1j], the MIC [1] was 8 µg/mL (≈ 37.5 µM), the MIC [2] was 8 µg/mL (≈ 37.5 µM) and the MIC [3] was 2 µg/mL (≈ 9.38 µM). It also gave an MIC [4] of 8 µg/mL (≈ 37.5 µM) and an MIC [5] of 2 µg/mL (≈ 9.38 µM).

Work on O=S1(=O)N=CC2=COc3ccccc3C2=N1 [I-6a] yielded an MIC [1] of 4 µg/mL (≈ 17.1 µM), an MIC [2] of 4 µg/mL (≈ 17.1 µM) and an MIC [3] of 1 µg/mL (≈ 4.27 µM). It also gave an MIC [4] of 4 µg/mL (≈ 17.1 µM) and an MIC [5] of 1 µg/mL (≈ 4.27 µM).

Work on COC(=O)c1ccc2c(c1)C=NS(=O)(=O)O2 [I-1f] yielded an MIC [1] of 4 µg/mL (≈ 16.6 µM), an MIC [2] of 4 µg/mL (≈ 16.6 µM) and an MIC [3] of 1 µg/mL (≈ 4.15 µM). The MIC [4] was 4 µg/mL (≈ 16.6 µM) and the MIC [5] was 1 µg/mL (≈ 4.15 µM).

O=S1(=O)OCC2(c3ccccc3)ON21 (stereo not drawn) [II-3c] gave an MIC [1] of 8 µg/mL (≈ 37.5 µM), an MIC [2] of 8 µg/mL (≈ 37.5 µM) and an MIC [3] of 2 µg/mL (≈ 9.38 µM). The MIC [4] was 8 µg/mL (≈ 37.5 µM) and the MIC [5] was 2 µg/mL (≈ 9.38 µM).

O=S1(=O)N=CC(CCc2ccc(F)cc2)=N1 [I-4c] gave an MIC [1] of 8 µg/mL (≈ 33.3 µM), an MIC [2] of 8 µg/mL (≈ 33.3 µM) and an MIC [3] of 2 µg/mL (≈ 8.32 µM). It also gave an MIC [4] of 8 µg/mL (≈ 33.3 µM) and an MIC [5] of 2 µg/mL (≈ 8.32 µM).

For O=S1(=O)N=Cc2cc(Cl)cc(Cl)c2O1 [I-1h], the MIC [1] was 4 µg/mL (≈ 15.9 µM), the MIC [2] was 4 µg/mL (≈ 15.9 µM) and the MIC [3] was 1 µg/mL (≈ 3.97 µM). The MIC [4] was 4 µg/mL (≈ 15.9 µM) and the MIC [5] was 1 µg/mL (≈ 3.97 µM).

In the case of O=S1(=O)N2OC2c2nccn21 (stereo not drawn) [II-5a], the MIC [1] is reported as 8 µg/mL (≈ 46.2 µM), the MIC [2] is reported as 8 µg/mL (≈ 46.2 µM) and the MIC [3] is reported as 2 µg/mL (≈ 11.6 µM). It also gave an MIC [4] of 8 µg/mL (≈ 46.2 µM) and an MIC [5] of 2 µg/mL (≈ 11.6 µM).

Compound O=S1(=O)N=Cc2cc(Br)ccc2O1 [I-1c] has an MIC [1] of 4 µg/mL (≈ 15.3 µM), an MIC [2] of 4 µg/mL (≈ 15.3 µM) and an MIC [3] of 1 µg/mL (≈ 3.82 µM). The MIC [4] was 4 µg/mL (≈ 15.3 µM) and the MIC [5] was 1 µg/mL (≈ 3.82 µM).

For O=S1(=O)N=C(c2ccccc2)CO1 [I-3c], the MIC [1] was 8 µg/mL (≈ 40.6 µM), the MIC [2] was 8 µg/mL (≈ 40.6 µM) and the MIC [3] was 2 µg/mL (≈ 10.1 µM). The MIC [4] was 8 µg/mL (≈ 40.6 µM) and the MIC [5] was 2 µg/mL (≈ 10.1 µM).

With CC1=NS(=O)(=O)OC(C)=C1C [I-2a] the MIC [1] was 8 µg/mL (≈ 45.7 µM), the MIC [2] was 8 µg/mL (≈ 45.7 µM) and the MIC [3] was 2 µg/mL (≈ 11.4 µM). It also gave an MIC [4] of 8 µg/mL (≈ 45.7 µM) and an MIC [5] of 2 µg/mL (≈ 11.4 µM).

In the case of O=S1(=O)N=Cc2cc(Cl)ccc2O1 [I-1b], the MIC [1] is reported as 4 µg/mL (≈ 18.4 µM), the MIC [2] is reported as 4 µg/mL (≈ 18.4 µM) and the MIC [3] is reported as 1 µg/mL (≈ 4.59 µM). For the same compound, the MIC [4] was 4 µg/mL (≈ 18.4 µM) and the MIC [5] was 1 µg/mL (≈ 4.59 µM).

Compound CC1=CC2(c3ccccc3)ON2S(=O)(=O)N1 (stereo not drawn) [II-2c] has an MIC [1] of 8 µg/mL (≈ 33.6 µM), an MIC [2] of 8 µg/mL (≈ 33.6 µM) and an MIC [3] of 2 µg/mL (≈ 8.39 µM). The MIC [4] was 8 µg/mL (≈ 33.6 µM) and the MIC [5] was 2 µg/mL (≈ 8.39 µM).

For O=S1(=O)N=Cc2cccn21 [I-5b], the MIC [1] was 16 µg/mL (≈ 102 µM), the MIC [2] was 16 µg/mL (≈ 102 µM) and the MIC [3] was 4 µg/mL (≈ 25.6 µM). For the same compound, the MIC [4] was 16 µg/mL (≈ 102 µM) and the MIC [5] was 4 µg/mL (≈ 25.6 µM).
